Laboratory results published in PubChem BioAssay (NCI).
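96-well plates; 48 h exposure; 5 concentrations. Endpoints by linear interpolation between flanking doses. Not reached: highest tested concentration assigned. GI50 marks 50% less growth. TGI marks complete inhibition of growth.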

What was measured:
Assay in all cases: NCI-60 cell line screen, 48 h
UO-31 renal = tested on: UO-31 renal
SK-MEL-5 melanoma = tested on: SK-MEL-5 melanoma
SF-295 CNS = tested on: SF-295 CNS
HOP-92 NSCLC = tested on: HOP-92 NSCLC
IGROV1 ovarian = tested on: IGROV1 ovarian
DMS 273 small cell lung = tested on: DMS 273 small cell lung
OVCAR-3 ovarian = tested on: OVCAR-3 ovarian
SNB-19 CNS = tested on: SNB-19 CNS
SR leukemia = tested on: SR leukemia
RPMI-8226 leukemia = tested on: RPMI-8226 leukemia
SK-OV-3 ovarian = tested on: SK-OV-3 ovarian
DLD-1 colon = tested on: DLD-1 colon
SF-539 CNS = tested on: SF-539 CNS
OVCAR-4 ovarian = tested on: OVCAR-4 ovarian
CCRF-CEM leukemia = tested on: CCRF-CEM leukemia
XF 498 CNS = tested on: XF 498 CNS
OVCAR-5 ovarian = tested on: OVCAR-5 ovarian
MALME-3M melanoma = tested on: MALME-3M melanoma
ACHN renal = tested on: ACHN renal
HOP-18 NSCLC = tested on: HOP-18 NSCLC
MOLT-4 leukemia = tested on: MOLT-4 leukemia
SN12C renal = tested on: SN12C renal
NCI-H460 lung = tested on: NCI-H460 lung
RXF 393 renal = tested on: RXF 393 renal
UACC-257 melanoma = tested on: UACC-257 melanoma
KM12 colon = tested on: KM12 colon

Work on `CC(=O)[CH-]C(C)=O.CC(=O)[CH-]C(C)=O.CC(=O)[CH-]C(C)=O.[In+3]` yielded a GI50 (UO-31 renal) greater than 100 µM, a TGI (UO-31 renal) greater than 100 µM and a GI50 (SK-MEL-5 melanoma) greater than 100 µM. It also gave a TGI (SK-MEL-5 melanoma) greater than 100 µM, a GI50 (SF-295 CNS) greater than 100 µM and a TGI (SF-295 CNS) greater than 100 µM. For the same compound, the GI50 (HOP-92 NSCLC) was greater than 100 µM, the TGI (HOP-92 NSCLC) was greater than 100 µM and the GI50 (IGROV1 ovarian) was greater than 100 µM. It also gave a TGI (IGROV1 ovarian) greater than 100 µM, a GI50 (DMS 273 small cell lung) greater than 100 µM and a TGI (DMS 273 small cell lung) greater than 100 µM. For the same compound, the GI50 (OVCAR-3 ovarian) was greater than 100 µM, the TGI (OVCAR-3 ovarian) was greater than 100 µM and the GI50 (SNB-19 CNS) was greater than 100 µM. The TGI (SNB-19 CNS) was greater than 100 µM, the GI50 (SR leukemia) was greater than 100 µM and the TGI (SR leukemia) was greater than 100 µM. It also gave a GI50 (RPMI-8226 leukemia) greater than 100 µM, a TGI (RPMI-8226 leukemia) greater than 100 µM and a GI50 (SK-OV-3 ovarian) greater than 100 µM. The TGI (SK-OV-3 ovarian) was greater than 100 µM, the GI50 (DLD-1 colon) was greater than 100 µM and the TGI (DLD-1 colon) was greater than 100 µM. It also gave a GI50 (SF-539 CNS) greater than 100 µM, a TGI (SF-539 CNS) greater than 100 µM and a GI50 (OVCAR-4 ovarian) greater than 100 µM. The TGI (OVCAR-4 ovarian) was greater than 100 µM, the GI50 (CCRF-CEM leukemia) was greater than 100 µM and the TGI (CCRF-CEM leukemia) was greater than 100 µM. For the same compound, the GI50 (XF 498 CNS) was greater than 100 µM, the TGI (XF 498 CNS) was greater than 100 µM and the GI50 (OVCAR-5 ovarian) was greater than 100 µM. For the same compound, the TGI (OVCAR-5 ovarian) was greater than 100 µM, the GI50 (MALME-3M melanoma) was greater than 100 µM and the TGI (MALME-3M melanoma) was greater than 100 µM. For the same compound, the GI50 (ACHN renal) was greater than 100 µM, the TGI (ACHN renal) was greater than 100 µM and the GI50 (HOP-18 NSCLC) was 52.4 µM. The TGI (HOP-18 NSCLC) was greater than 100 µM, the GI50 (MOLT-4 leukemia) was greater than 100 µM and the TGI (MOLT-4 leukemia) was greater than 100 µM. For the same compound, the GI50 (SN12C renal) was greater than 100 µM, the TGI (SN12C renal) was greater than 100 µM and the GI50 (NCI-H460 lung) was greater than 100 µM. It also gave a TGI (NCI-H460 lung) greater than 100 µM, a GI50 (RXF 393 renal) greater than 100 µM and a TGI (RXF 393 renal) greater than 100 µM. It also gave a GI50 (UACC-257 melanoma) greater than 100 µM, a TGI (UACC-257 melanoma) greater than 100 µM and a GI50 (KM12 colon) greater than 100 µM. The TGI (KM12 colon) was greater than 100 µM.
